From patent US11959096B2, “Methods for selective inhibition of pluripotent stem cells” (THE MEDICAL COLLEGE OF WISCONSIN, INC., priority 2014, dated 2024)

Experiments:
hiPSC [1] = assay: Live/dead staining (calcein AM / ethidium homodimer-1); assay type: cell-based, human
Procedure: (§1) In Vitro Toxicity Assays: Treatment with small molecules or glucose deprivation was initiated in hESC or hiPSC at 24 and 96 h post-plating and in vitro toxicity assays were performed at specified treatment endpoints 24-96 hours after treatment initiation. […] Neutral red assays for cell viability were performed as previously described. In vitro cell death was determined using SYTOX® Green nucleic acid stain (Life Technologies). Briefly, cells were incubated in 5 μM SYTOX® Green for 30 minutes at 37° C. in a humidified cell incubator with 5% CO2. Percent cell viability was determined by normalizing to replicate cells incubated with 120 μM digitonin (Sigma-Aldrich) and 5 μM SYTOX® Green. Imaging of cell viability was performed using Live/Dead® Viability/Cytotoxicity Kit, for mammalian cells (Life Technologies). Cells were stained for 20 minutes at room temperature with 4 μM Calcein AM to detect viable cells and 2 μM Ethidium Homodimer 1 to detect cells with compromised membranes. Representative images of alterations in cell morphology were acquired on confluent hPSC 24-72 hours after treatment initiation. Imaging was performed with a Nikon Ti-U inverted microscope.

[2] = system: DF6-9-9T hiPSC in co-culture with day 10 cardiomyocytes or human fibroblasts; assay: Colony formation assay in co-cultures of hiPSC with differentiated cells; assay type: cell-based; details: 5 μM
Procedure: The first iteration was adapted from previously described method, after 24 hours of treatment, hiPSC were detached with Accutase (StemCell Technologies), re-suspended in E8, passed though 12×75 mm tube with cell strainer cap (Falcon), and plated at 5e4 live cells per 2 cm^2. Media were changed every 48 hours and cells were cultured for six days, at which time staining for alkaline phosphatase was performed with leukocyte alkaline phosphatase kit (Sigma-Aldrich) as described and plates were visually inspected for phosphatase-positive colonies. This strategy represents the most common implementation of the colony formation assay. However, concerns regarding the cell death normally encountered during passaging prompted another approach for stricter assessment. In the second iteration, cells were treated for 24 hours, washed twice with 0.5 mL D-PBS, and media refreshed with E8. Thereafter, media were replaced daily for six days at which point staining for alkaline phosphatase activity was performed. […] Elimination of hiPSC from co-cultures with differentiated cells was performed with human fibroblasts and day 10 cardiomyocytes derived from hiPSC. hiPSC (DF6-9-9T) were plated at concentrations ranging from 100-10,000 live cells per well with human fibroblasts (1.75e5 cells) or day 10 differentiated cardiomyocytes (3.75e5 cells) in E8 and Y-27632 per 9.6 cm^2. […]

[3] = system: DF6-9-9T hiPSC-derived cardiomyocytes; assay: Neutral red viability assay in hiPSC-derived cardiomyocytes; assay type: cell-based; details: 24 hour pulse treatment
Procedure: as §1

human fibroblasts = details: treatment time extended to 72 hours; previous report [19]; cited from earlier work
[4] = system: mesenchymal stem cells, fibroblasts, retinal pigmented epithelial cells, hiPSC-derived cardiomyocytes, specified hepatic endoderm cells, neural progenitors; assay type: cell-based; details: 2.5 μM for 72 hours
Procedure: (C) Human iPSC-derived neural progenitors were treated with 2.5 μM for 72 hours and assessed by MTT assay (top; day 10 and day 12 progenitors) and immunofluorescence (bottom; day 12 progenitors shown).
Viability measurements were consistent with these visual observations. See data for cardiomyocytes, neural progenitors, and fibroblasts in FIGS. 8B-C). […] See Boheler et al., Stem Cell Reports 3, 185-203 (2014).

[5] = DMSO; cited from earlier work
[6] = SYTOX Green cell viability assay; assay type: cell-based, human; details: human, hiPSC (DF6-9-9T) cells
Procedure: as §1

confluent hiPSC = assay: Colony formation assay (alkaline phosphatase staining); assay type: cell-based, human; details: for colony formation: 24 hours treatment, no passaging, six days
Procedure: The first iteration was adapted from previously described method, after 24 hours of treatment, hiPSC were detached with Accutase (StemCell Technologies), re-suspended in E8, passed though 12×75 mm tube with cell strainer cap (Falcon), and plated at 5e4 live cells per 2 cm^2. Media were changed every 48 hours and cells were cultured for six days, at which time staining for alkaline phosphatase was performed with leukocyte alkaline phosphatase kit (Sigma-Aldrich) as described and plates were visually inspected for phosphatase-positive colonies. This strategy represents the most common implementation of the colony formation assay. However, concerns regarding the cell death normally encountered during passaging prompted another approach for stricter assessment. In the second iteration, cells were treated for 24 hours, washed twice with 0.5 mL D-PBS, and media refreshed with E8. Thereafter, media were replaced daily for six days at which point staining for alkaline phosphatase activity was performed. […] Elimination of hiPSC from co-cultures with differentiated cells was performed with human fibroblasts and day 10 cardiomyocytes derived from hiPSC. hiPSC (DF6-9-9T) were plated at concentrations ranging from 100-10,000 live cells per well with human fibroblasts (1.75e5 cells) or day 10 differentiated cardiomyocytes (3.75e5 cells) in E8 and Y-27632 per 9.6 cm^2. […] Six days after plating, staining for alkaline phosphatase activity was performed. […] Imaging of wells was performed with a Sony Cyber-shot DSC-TX30 and individual colonies with a Nikon stereoscope.

hiPSC [7] = assay: Extracellular flux analysis (ECAR, OCR); assay type: cell-based, human
Procedure: Extracellular Flux Analysis: hiPSC were plated at 6e4 cells per well on specialized microplate (Seahorse Bioscience) as previously described with several exceptions. Extracellular flux analysis was performed on hiPSC 48 hours post-plating using Seahorse Bioscience XF24 Analyzer. […] The microplate was equilibrated in non-CO2 incubator for 1.5 h, and analyzed for 16 h in Seahorse Bioscience XF24 Analyzer. Assay medium consists of basal E8 reagents with the following exceptions: basal DMEM F-12 without phenol red (Gibco), no sodium bicarbonate, and 2.5 mM GlutaMAX™ (Gibco) and 15 mM Hepes (Gibco). Assay medium was adjusted to pH 7.4 at 37° C. prior to use. Extracellular acidification rate (ECAR) and basal oxygen consumption rate (OCR) were collected approximately every 60 minutes. Treatments were normalized to baseline media control value and are represented as average of thee biological replicates.

## CC(C)(C)c1ccc(S(=O)(=O)NCc2ccc(C(=O)Nc3cccnc3)cc2)cc1 [STF-31, 4-[[[[4-(1,1-Dimethylethyl)phenyl]sulfonyl]amino]methyl]-N-3-pyridinyl-benzamide]
hiPSC [1]; 48 hours, 2.5 μM STF-31
  live/dead staining: small patches of live cells remained
hiPSC [1]; 72 hours, confluent, 2.5 μM STF-31, 30 μM WZB117, 20 μM PluriSIn
  live/dead staining: not visible
[2]; 24-hour pulse, day 10 cardiomyocytes
  elimination of hiPSC colonies from co-culture: elimination of a majority of hiPSC colonies
[2]; 48 hour pulse, day 10 cardiomyocytes or human fibroblasts
  elimination of hiPSC colonies from co-culture: completely eliminate hiPSC
[3]
  LD50: 40 µM
  LD50 cardiomyocytes relative to hiPSC: 22 fold
Human fibroblasts
  cell viability: did not result in a decrease in cell viability
[4]
  visible changes in morphology or cell death: None of these cell types exhibited visible changes in morphology or obvious cell death
[5]
  solubility: soluble in DMSO
[6]
  viability at 72 h, 2.5 μM: 10%
Confluent hiPSC; 24 hour pulse, cells passaged, cultured 6 days
  formation of alkaline phosphatase-positive colonies: prevented the formation of alkaline phosphatase-positive colonies
Confluent hiPSC; 2.5 μM STF-31
  colony formation: a limited number of colonies formed
Confluent hiPSC; 5 μM STF-31
  colony formation: no colonies were observed
hiPSC [7]; 2.5 μM STF-31
  delay of decrease in ECAR compared to inhibitors of glucose oxidation: up to 15 hours
hiPSC [7]; 2.5 μM STF-31, 30 μM WZB117
  time before reductions in OCR: 15 h
